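A five-concentration, 48-hour dose response in 96-well plates underlies each endpoint, interpolated linearly between surrounding concentrations. GI50 marks 50% less growth.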 Calls of active or inactive are those of the source. No stated cut-off is given here; in the data, active = GI50 up to about 1.1 µM and inactive = higher.
What was measured:
Assay in all cases: NCI anticancer screen, dose series, 48 h
MOLT-4 = tested on: MOLT-4
HL-60 = tested on: HL-60
COLO 205 = tested on: COLO 205
M19-MEL = tested on: M19-MEL
M14 = tested on: M14
A498 = tested on: A498
SNB-19 = tested on: SNB-19
SN12C = tested on: SN12C
UACC-62 = tested on: UACC-62
SNB-75 = tested on: SNB-75
NCI-H522 = tested on: NCI-H522
KM12 = tested on: KM12
ACHN = tested on: ACHN
SF-295 = tested on: SF-295
SK-MEL-5 = tested on: SK-MEL-5
Malme-3M = tested on: Malme-3M

Measured: GI50

CC(=O)/C=C/c1ccc(C)cc1
inactive: MOLT-4 > 100 µM | HL-60 > 100 µM | COLO 205 > 100 µM | M19-MEL > 100 µM | M14 > 100 µM | A498 > 100 µM | SNB-19 > 100 µM | SN12C > 100 µM | UACC-62 > 100 µM | SNB-75 > 100 µM | NCI-H522 > 100 µM | KM12 > 100 µM | ACHN > 100 µM | SF-295 > 100 µM | SK-MEL-5 > 100 µM | Malme-3M > 100 µM

COC1CC(OS(=O)(=O)c2ccc(C)cc2)C(OC(=O)c2ccccc2)C(C)O1 (stereo not given)
inactive: MOLT-4 > 10 µM | HL-60 > 10 µM | COLO 205 > 10 µM | M19-MEL > 10 µM | M14 > 10 µM | A498 > 10 µM | SNB-19 > 10 µM | SN12C > 10 µM | UACC-62 > 100 µM | SNB-75 99.5 µM | NCI-H522 > 10 µM | KM12 > 10 µM | ACHN > 10 µM | SF-295 > 100 µM | SK-MEL-5 > 10 µM | Malme-3M > 10 µM

Cc1c(CCl)c(=O)oc2c(C)c3occ(CCl)c(=O)c3cc12
inactive: MOLT-4 6.35 µM | HL-60 4.72 µM | COLO 205 16 µM | M19-MEL 16.2 µM | M14 17 µM | A498 > 100 µM | SNB-19 25.8 µM | SN12C 23.4 µM | UACC-62 16.3 µM | SNB-75 17.2 µM | NCI-H522 13.4 µM | KM12 > 100 µM | ACHN > 100 µM | SF-295 > 100 µM | SK-MEL-5 > 100 µM | Malme-3M > 100 µM

CC(C)(C)C1(O)Cc2ccccc2C(=O)O1 (stereo not given)
inactive: MOLT-4 > 100 µM | HL-60 > 100 µM | COLO 205 > 100 µM | M19-MEL > 100 µM | M14 > 100 µM | A498 > 100 µM | SNB-19 > 100 µM | SN12C > 100 µM | UACC-62 > 100 µM | SNB-75 > 100 µM | NCI-H522 > 100 µM | KM12 > 100 µM | ACHN > 100 µM | SF-295 > 100 µM | SK-MEL-5 > 100 µM | Malme-3M > 100 µM

O=C1CC2C(=O)N(Cc3ccccc3)C1C=C2S(=O)(=O)c1ccccc1 (stereo not given)
inactive: MOLT-4 > 100 µM | HL-60 > 100 µM | COLO 205 > 100 µM | M19-MEL > 100 µM | M14 > 100 µM | A498 > 100 µM | SNB-19 > 100 µM | SN12C > 100 µM | UACC-62 > 100 µM | SNB-75 > 100 µM | NCI-H522 > 100 µM | KM12 > 100 µM | ACHN > 100 µM | SF-295 > 100 µM | SK-MEL-5 > 100 µM | Malme-3M > 100 µM
